Target: T1, glucocorticoid receptor (GR) (Homo sapiens, UniProt P04150)
T1 construct: endogenous in cells; host or cells: HeLa (ATCC) cell lysate supernatant
T1 sequence (P04150 1-777): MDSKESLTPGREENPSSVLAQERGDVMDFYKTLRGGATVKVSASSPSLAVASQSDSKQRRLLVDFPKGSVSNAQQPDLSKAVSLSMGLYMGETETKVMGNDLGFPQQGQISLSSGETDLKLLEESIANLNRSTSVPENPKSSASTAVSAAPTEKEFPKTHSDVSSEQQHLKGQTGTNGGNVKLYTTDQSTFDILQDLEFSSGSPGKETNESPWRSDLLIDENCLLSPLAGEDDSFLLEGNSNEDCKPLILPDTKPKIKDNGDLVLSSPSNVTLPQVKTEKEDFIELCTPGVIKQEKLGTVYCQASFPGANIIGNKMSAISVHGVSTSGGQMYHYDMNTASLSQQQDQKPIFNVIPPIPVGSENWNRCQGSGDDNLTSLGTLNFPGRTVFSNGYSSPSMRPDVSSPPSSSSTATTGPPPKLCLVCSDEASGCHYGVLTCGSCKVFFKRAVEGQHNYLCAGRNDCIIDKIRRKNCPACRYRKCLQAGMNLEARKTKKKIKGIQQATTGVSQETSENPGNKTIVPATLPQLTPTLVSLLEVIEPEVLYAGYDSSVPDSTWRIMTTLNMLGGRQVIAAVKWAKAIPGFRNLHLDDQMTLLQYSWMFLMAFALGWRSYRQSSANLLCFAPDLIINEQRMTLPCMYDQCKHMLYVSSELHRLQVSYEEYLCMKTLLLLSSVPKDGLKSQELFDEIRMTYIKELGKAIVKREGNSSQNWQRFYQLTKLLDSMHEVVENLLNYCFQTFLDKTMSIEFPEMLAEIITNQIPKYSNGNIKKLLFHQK
Assay: Ligand binding assay (GR BIND), 3H-dexamethasone displacement, HeLa cell lysate
Description: Binding Buffer: TEGM (10 mM Tris-HCl, 1 mM EDTA, 10% glycerol, 1 mM beta-mercaptoethanol, 10 mM Sodium Molybdate, pH 7.2)
50% HAP Slurry: Calbiochem Hydroxylapatite, Fast Flow, in 10 mM Tris, pH 8.0 and 1 mM EDTA.
Wash Buffer: 40 mM Tris, pH7.5, 100 mM KCl, 1 mM EDTA and 1 mM EGTA.
Dexmethasone-methyl-^3H, (DEX*); (Amersham cat# TRK645)
Dexamethasone (DEX) (Sigma, cat# D1756):
Phenol red-free Trypsin-EDTA is diluted in the same PBS 1:10. The cell layers are rinsed with 1× Trypsin, extra Trypsin is poured out, and the cell layers are incubated at 37° C. for ˜2 min. The flask is tapped and checked for signs of cell detachment. Once the cells begin to slide off the flask, the complete media is added. The cells are counted at this point, then diluted to the appropriate concentration and split into flasks or dishes for further culturing (Usually 1:3 to 1:6 dilution).
Preparation of Hela Cell Lysate
The cell pellet is washed twice with TEGM (10 mM Tris-HCl, 1 mM EDTA, 10% glycerol, 1 mM beta-mercaptoethanol, 10 mM Sodium Molybdate, pH 7.2). After the final wash, the cells are resuspended in TEGM at a concentration of 10^7 cells/mL. The cell suspension is snap frozen in liquid nitrogen or ethanol/dry ice bath and transferred to −80° C. freezer on dry ice. Before setting up the binding assay, the frozen samples are left on ice-water to just thaw (˜1 hr). Then the samples are centrifuged at 12,500 g to 20,000 g for 30 min at 4° C. The supernatant is used to set-up assay right away. If using 50 μL of supernatant, the test compound can be prepared in 50 μL of the TEGM buffer.
Procedure for Multiple Compound Screening
1×TEGM buffer is prepared, and the isotope-containing assay mixture is prepared in the following order: EtOH (2% final concentration in reaction), 3H-DEX (Amersham Biosciences) and 1×TEGM. [e.g. For 100 samples, 200 μL (100×2) of EtOH+4.25 μL of 1:10 ^3H-Dex stock+2300 μL (100×23) 1×TEGM]. The compound is serially diluted, e.g., if starting final conc. is 1 μM, and the compound is in 25 μL of solution, for duplicate samples, 75 μL of 4×1 μM solution is made and 3 μL of 100 μM is added to 72 μL of buffer, and 1:5 serial dilution.
25 μL of ^3H-DEX (6 nM) trace and 25 μL compound solution are first mixed together, followed by addition of 50 μL receptor solution. The reaction is gently mixed, spun briefly at about 200 rpm and incubated at 4° C. overnight. 100 μL of 50% HAP slurry is prepared and added to the incubated reaction which is then vortexed and incubated on ice for 5 to 10 minutes. The reaction mixture is vortexed twice more to resuspend HAP while incubating reaction. The samples in 96-well format are then washed in wash buffer using The FilterMate™ Universal Harvester plate washer (Packard). The washing process transfers HAP pellet containing ligand-bound expressed receptor to Unifilter-96 GF/B filter plate (Packard). The HAP pellet on the filter plate is incubated with 50 μL of MICROSCINT (Packard) scintillant for 30 minutes before being counted on the TopCount microscintillation counter (Packard). IC50s are calculated using DEX as a reference.

[1] = Table 1, HeLa cell lysate, 3H-DEX
[2] = Table 2, prior-art comparison compounds

| Ki [1] [nM] | Ki [2] [nM] | Structure (SMILES) |
| --- | --- | --- |
| 0.44 |  | C[C@]12Cc3cnn(-c4ccc(F)cc4)c3C=C1CC[C@@]2(O)CCc1ccccc1C(=O)NCC1CC1 [Example 37, N-(cyclopropylmethyl)-2-{2-[(4αS,5R)-1-(4-fluorophenyl)-5-hydroxy-4α-methyl-1,4,4α,5,6,7-hexahydrocyclopenta[r]indazol-5-yl]ethyl}benzamide] |
| 0.43 |  | CC(CNC(=O)c1c(F)cccc1CC[C@]1(O)CCC2=Cc3c(cnn3-c3ccc(F)cc3)C[C@@]21C)C(F)(F)F (stereo partly drawn) [Example 38, 2-fluoro-6-{2-[(4αS,5R)-1-(4-fluorophenyl)-5-hydroxy-4α-methyl-1,4,4α,5,6,7-hexahydrocyclopenta[f]indazol-5-yl]ethyl}-N-(3,3,3-trifluoro-2-methylpropyl)benzamide] |
|  | 20.7 | C[C@]12Cc3cnn(-c4ccc(F)cc4)c3C=C1CC[C@@]2(O)CCc1ccccc1Cl [Example 40 WO 2004/075840 A2, reference compound] |
| 6.14 |  | C[C@]12Cc3cnn(-c4ccc(F)cc4)c3C=C1CC[C@@]2(O)CCc1ccccc1C(=O)N1CCC1 [Example 40, (4αS,5R)-5-{2-[2-(azetidin-1-ylcarbonyl)phenyl]ethyl}-1-(4-fluorophenyl)-4α-methyl-1,4,4α,5,6,7-hexahydrocyclopenta[f]indazol-5-ol] |
|  | 0.32 | C[C@]12Cc3cnn(-c4ccc(F)cc4)c3C=C1CCC[C@@]2(O)CCc1ccccc1Cl [Example 41 WO 2004/075840 A2, reference compound] |
| 0.83 |  | COC(=O)C(C)(C)NC(=O)c1c(F)cccc1CC[C@]1(O)CCC2=Cc3c(cnn3-c3ccc(F)cc3)C[C@@]21C [Example 41, methyl N-(2-fluoro-6-{2-[(4αS,5R)-1-(4-fluorophenyl)-5-hydroxy-4α-methyl-1,4,4α,5,6,7-hexahydrocyclopenta[f]indazol-5-yl]ethyl}benzoyl)-2-methylalaninate] |
| 2.79 |  | C[C@]12Cc3cnn(-c4ccccc4)c3C=C1CC[C@@]2(O)CCc1ccccc1C(=O)NC1CC1 [Example 42, N-cyclopropyl-2-{2-[(4αS,5R)-5-hydroxy-4α-methyl-1-phenyl-1,4,4α,5,6,7-hexahydrocyclopenta[f]indazol-5-yl]ethyl}benzamide] |
| 5.16 |  | C[C@]12Cc3cnn(-c4ccccc4)c3C=C1CC[C@@]2(O)CCc1ccccc1C(N)=O [Example 43, 2-{2-[(4αS,5R)-5-hydroxy-4α-methyl-1-phenyl-1,4,4α,5,6,7-hexahydrocyclopenta[f]indazol-5-yl]ethyl}benzamide] |
| 0.6 |  | C=C(C)CNC(=O)c1c(F)cccc1CC[C@]1(O)CCC2=Cc3c(cnn3-c3ccc(F)cc3)C[C@@]21C [Example 44, 2-fluoro-6-{2-[(4αS,5R)-1-(4-fluorophenyl)-5-hydroxy-4α-methyl-1,4,4α,5,6,7-hexahydrocyclopenta[f]indazol-5-yl]ethyl}-N-(2-methylprop-2-en-1-yl)benzamide] |
| 1.02 |  | C[C@H](CNC(=O)c1ccccc1CC[C@]1(O)CCC2=Cc3c(cnn3-c3ccc(F)cc3)C[C@@]21C)C(F)(F)F [Example 45, 2-{2-[(4αS,5R)-1-(4-fluorophenyl)-5-hydroxy-4α-methyl-1,4,4α,5,6,7-hexahydrocyclopenta[f]indazol-5-yl]ethyl}-N-[(2R)-3,3,3-trifluoro-2-methylpropyl]benzamide] |
|  | 1 | C[C@]12Cc3cnn(-c4ccc(F)cc4)c3C=C1CC[C@@]2(O)CCc1ccc(F)cc1 [Example 46 WO 2004/075840 A2, reference compound] |
| 3.02 |  | C[C@]12Cc3cnn(-c4ccc(F)cc4)c3C=C1CC[C@@]2(O)CCc1ccccc1C(=O)N1CCCCC1 [Example 46, (4αS,5R)-1-(4-fluorophenyl)-4α-methyl-5-{2-[2-(piperidin-1-ylcarbonyl)phenyl]ethyl}-1,4,4α,5,6,7-hexahydrocyclopenta[f]indazol-5-ol] |
| 11.5 |  | C[C@]12Cc3cnn(-c4ccc(F)cc4)c3C=C1CC[C@@]2(O)CCc1ccccc1C(=O)N1CCCC1 [Example 47, (4αS,5R)-1-(4-fluorophenyl)-4α-methyl-5-{2-[2-(pyrrolidin-1-ylcarbonyl)phenyl]ethyl}-1,4,4α,5,6,7-hexahydrocyclopenta[f]indazol-5-ol] |
| 1.2 |  | CC(C)[C@@H](C)NC(=O)c1c(F)cccc1CC[C@]1(O)CCC2=Cc3c(cnn3-c3ccc(F)cc3)C[C@@]21C [Example 48, N-[(1R)-1,2-dimethylpropyl]-2-fluoro-6-{2-[(4αS,5R)-1-(4-fluorophenyl)-5-hydroxy-4α-methyl-1,4,4α,5,6,7-hexahydrocyclopenta[f]indazol-5-yl]ethyl}benzamide] |
| 0.81 |  | CCCNC(=O)c1c(F)cccc1CC[C@]1(O)CCC2=Cc3c(cnn3-c3ccc(F)cc3)C[C@@]21C [Example 49, 2-fluoro-6-{2-[(4αS,5R)-1-(4-fluorophenyl)-5-hydroxy-4α-methyl-1,4,4α,5,6,7-hexahydrocyclopenta[f]indazol-5-yl]ethyl}-N-propylbenzamide] |
| 7.05 |  | CCNC(=O)c1ccccc1CC[C@]1(O)CCC2=Cc3c(cnn3-c3ccc(F)c(F)c3)C[C@@]21C [Example 51, 2-{2-[(4αS,5R)-1-(3,4-difluorophenyl)-5-hydroxy-4α-methyl-1,4,4α,5,6,7-hexahydrocyclopenta[f]indazol-5-yl]ethyl}-N-ethylbenzamide] |
| 0.8 |  | COC(=O)C(C)(C)NC(=O)c1ccccc1CC[C@]1(O)CCC2=Cc3c(cnn3-c3ccc(F)cc3)C[C@@]21C [Example 52, methyl N-(2-{2-[(4αS,5R)-1-(4-fluorophenyl)-5-hydroxy-4α-methyl-1,4,4α,5,6,7-hexahydrocyclopenta[f]indazol-5-yl]ethyl}benzoyl)-2-methylalaninate] |
| 0.92 |  | CC(C)(C)CNC(=O)c1c(F)cccc1CC[C@]1(O)CCC2=Cc3c(cnn3-c3ccc(F)cc3)C[C@@]21C [Example 55, N-(2,2-dimethylpropyl)-2-fluoro-6-{2-[(4αS,5R)-1-(4-fluorophenyl)-5-hydroxy-4α-methyl-1,4,4α,5,6,7-hexahydrocyclopenta[f]indazol-5-yl]ethyl}benzamide] |
| 0.61 |  | C=CCNC(=O)c1c(F)cccc1CC[C@]1(O)CCC2=Cc3c(cnn3-c3ccc(F)cc3)C[C@@]21C [Example 57, N-allyl-2-fluoro-6-{2-[(4αS,5R)-1-(4-fluorophenyl)-5-hydroxy-4α-methyl-1,4,4α,5,6,7-hexahydrocyclopenta[f]indazol-5-yl]ethyl}benzamide] |
|  | 0.28 | COc1ccccc1CC[C@]1(O)CCC2=Cc3c(cnn3-c3ccc(F)cc3)C[C@@]21C [Example 58 WO 2004/075840 A2, reference compound] |

— US8119681B2, “2-[1-phenyl-5-hydroxy or methoxy-4alpha-methyl-hexahydrocyclopenta [ƒ]indazole-5-YL]ethyl phenyl derivatives as glucocorticoid receptor ligands” (Merck Sharp & Dohme Corp., priority 2006, dated 2012)
